Assay [1] has as its system DoHH2. The assay can be described thus: CellTiter-Glo proliferation/viability assay. In kind it is cell-based, human.
In a further assay the test system is Ramos. Briefly: CellTiter-Glo proliferation/viability assay. In kind it is cell-based, human. The note with it: read-out: Ramos EC50. In general terms: Cellular ATP, detected with luciferase, serves as a proxy for viable cell number.
Another assay has as its system RBL-2H3 cells. Briefly: Degranulation (β-hexosaminidase release) colorimetric assay. The conditions noted are these: Rattus norvegicus, RBL-2H3, IgE / DNP-BSA. The assay is classed as cell-based. From the text: Crosslinking of IgE receptors leads to induction of intracellular signal transduction pathways and degranulation of mast cells and basophils leading to the release of histamine, serotonin and cytokines that constitutes an allergic reaction. […] One of the factors secreted on induction of degranulation is β-hexosaminidase. A colorimetric assay using 4-nitrophenyl N-acetyl-3-D-glucosaminide (Sigma-Aldrich) as a substrate was used to estimate the amount of enzyme secreted upon degranulation. In brief, RBL-2H3 (ATCC # CRL 2256) cells were plated overnight in the presence of IgE (monoclonal anti-dinitrophenyl antibody from Sigma-Aldrich). The next day, cells were treated with compounds in cell culture media, washed and treated with DNP-BSA for 1 hour (Sigma-Aldrich) in Tyrodes's buffer to induce degranulation. The level of 3-hexosaminidase was analyzed in cell-free supernates and cell lysates and the amount of β-hexosaminidase released was calculated. EC50 values were generated using varying concentrations of inhibitors. […] Thus amino naphthyridinones can be used to inhibit immunologic functions such as degranulation.

The target in assay [2] is T1, Src (Homo sapiens (Human), UniProt P12931). The conditions noted are these: read-out: Src IC50.
T1 sequence (P12931 whole entry, looked up): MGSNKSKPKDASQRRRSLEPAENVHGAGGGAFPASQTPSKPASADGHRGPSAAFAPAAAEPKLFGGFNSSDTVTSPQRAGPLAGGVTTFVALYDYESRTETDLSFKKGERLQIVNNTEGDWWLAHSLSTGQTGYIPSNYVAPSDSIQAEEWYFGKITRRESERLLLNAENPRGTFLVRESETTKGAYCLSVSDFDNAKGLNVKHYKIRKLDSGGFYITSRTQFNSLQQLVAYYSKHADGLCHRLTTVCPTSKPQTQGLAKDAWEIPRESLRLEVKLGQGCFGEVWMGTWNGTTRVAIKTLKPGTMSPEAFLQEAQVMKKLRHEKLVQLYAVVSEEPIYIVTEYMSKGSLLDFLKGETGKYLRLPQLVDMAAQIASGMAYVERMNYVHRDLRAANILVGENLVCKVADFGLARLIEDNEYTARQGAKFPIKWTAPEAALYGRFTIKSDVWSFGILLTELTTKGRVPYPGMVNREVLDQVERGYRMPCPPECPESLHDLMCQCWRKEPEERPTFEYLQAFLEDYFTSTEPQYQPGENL
The target of assay [3] is T2, Lyn (Homo sapiens (Human), UniProt P07948). Briefly: biochemical.
T2 sequence (P07948 whole entry): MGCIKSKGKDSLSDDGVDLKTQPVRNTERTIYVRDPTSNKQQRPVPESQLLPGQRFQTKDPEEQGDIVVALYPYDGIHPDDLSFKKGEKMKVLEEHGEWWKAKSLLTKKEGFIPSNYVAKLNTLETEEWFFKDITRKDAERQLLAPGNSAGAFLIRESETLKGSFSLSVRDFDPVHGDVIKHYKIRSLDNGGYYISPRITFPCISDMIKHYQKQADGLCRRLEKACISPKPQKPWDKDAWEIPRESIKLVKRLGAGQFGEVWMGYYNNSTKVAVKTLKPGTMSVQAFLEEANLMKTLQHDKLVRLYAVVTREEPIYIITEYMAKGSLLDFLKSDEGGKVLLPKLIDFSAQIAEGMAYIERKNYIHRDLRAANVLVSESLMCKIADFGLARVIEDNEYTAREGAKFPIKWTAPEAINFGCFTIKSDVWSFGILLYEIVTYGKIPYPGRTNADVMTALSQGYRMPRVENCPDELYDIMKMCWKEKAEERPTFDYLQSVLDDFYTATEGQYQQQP
The subject of assay [4] is DoHH2. Briefly: Apoptosis by flow cytometry (Annexin V / 7AAD). In kind it is cell-based, human. The note with it: Table 6; for Percent Apoptosis at 2 uM: DOHH2, 2 uM; for Percent Apoptosis at 5 uM: DOHH2, 5 uM. From the text: Activation of Tec family kinases including BTK, and/or Src kinase family members, regulates cell survival and cell death in normal B cells, lymphomas, and solid tumors. Apoptosis is a programmed cell death characterized by specific changes in cell morphology. […] Staurosporine was used as a positive control for apoptosis. […] Table 6 illustrates that several amino naphthyridinones induce significant apoptosis in DoHH2 cells.
In general terms: Flow cytometry measures light scatter and fluorescence of single cells or particles in a stream.

For assay [5], the system named is PLCγ2 phosphorylation in Ramos cells. Briefly: PLCγ2 phosphorylation by flow cytometry. The note with it: Homo sapiens, flow cytometry; for inhibition at 0.3 µM: anti-phospho PLCγ2 (Tyr759), read-out: pPLCγ % inhibition. In kind it is cell-based, human. An outline of the steps:
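Ramos cells starved 18 h in 1% FBS, pretreated with inhibitor 2 h, then stimulated with anti-IgM (10 ug/ml final) plus 3.3 mM H2O2 for 2 min, then cross-linking F(ab) (10 ug/ml) plus H2O2 for 8 min. Fixed, permeabilized cells stained with PE anti-phospho-PLCγ2 (Tyr1217 or Tyr759), dead cells gated out; ED50 from geometric mean fluorescence over four inhibitor concentrations.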

Assay [6] has as its system phosphorylation of SFKs in Ramos cells. The assay can be described thus: SFK phosphorylation (Tyr 416) by flow cytometry. The conditions noted are these: Homo sapiens, 0.3 uM, flow cytometry, SFK phosphorylated at Tyr 416, read-out: pSRC % inhibition. The assay is classed as cell-based, human. How it is done:
Ramos cell lysates from stimulated and unstimulated cells were analyzed for the levels of phosphorylated SRC family members. As described in Example 82 (above), cells were pretreated for 2 hours with an amino naphthyridinones and then stimulated with anti-IgM antibody and H2O2, protein lysates were prepared, quantified and used for Western blotting. A commercially available antibody that detects Src phosphorylated at Tyr 416 (Cell Signalling) and may cross-react with other Src family members such as Lyn, Fyn, Lck, Yes and Hck when phosphorylated at equivalent sites was used for Western blot analysis. The molecular weights of SFK family members are quite similar (in the 55-60 kDa range) and different family members cannot be resolved by the conditions used for the Western blot. […] The procedure can be similarly adapted for flow cytometric analysis as with the PLC-γ2 assay in Example 82. Ramos cells were incubated with Compound 1 for 2 hrs in RPMI media with 5% FBS prior to stimulation stimulated with H2O2/anti-IgM/F(Ab) for 10 minutes. Cells were evaluated by FACS analysis using anti-pSRC antibody and FITC-conjugated goat anti-rabbit secondary antibody following overnight storage at 4° C. in BD perm/wash buffer.
Ramos cells were prepared for flow cytometry analysis as described in example 82, and stained with a commercially available antibody that detects SFK phosphorylated at Tyr 416, followed by Alexa Fluor 488 conjugated secondary antibody. […] Thus amino naphthyridinones are useful in the inhibition of the phosphorylation of SFKs.

For assay [7], the target named is T2, Lyn. The conditions noted are these: read-out: Lyn IC50.
The subject of a further assay is DoHH2 cells. The conditions noted are these: treated 24 hours.
The target in another assay is BTK (Homo sapiens (Human), UniProt Q06187).
Sequence of BTK (Q06187 whole entry): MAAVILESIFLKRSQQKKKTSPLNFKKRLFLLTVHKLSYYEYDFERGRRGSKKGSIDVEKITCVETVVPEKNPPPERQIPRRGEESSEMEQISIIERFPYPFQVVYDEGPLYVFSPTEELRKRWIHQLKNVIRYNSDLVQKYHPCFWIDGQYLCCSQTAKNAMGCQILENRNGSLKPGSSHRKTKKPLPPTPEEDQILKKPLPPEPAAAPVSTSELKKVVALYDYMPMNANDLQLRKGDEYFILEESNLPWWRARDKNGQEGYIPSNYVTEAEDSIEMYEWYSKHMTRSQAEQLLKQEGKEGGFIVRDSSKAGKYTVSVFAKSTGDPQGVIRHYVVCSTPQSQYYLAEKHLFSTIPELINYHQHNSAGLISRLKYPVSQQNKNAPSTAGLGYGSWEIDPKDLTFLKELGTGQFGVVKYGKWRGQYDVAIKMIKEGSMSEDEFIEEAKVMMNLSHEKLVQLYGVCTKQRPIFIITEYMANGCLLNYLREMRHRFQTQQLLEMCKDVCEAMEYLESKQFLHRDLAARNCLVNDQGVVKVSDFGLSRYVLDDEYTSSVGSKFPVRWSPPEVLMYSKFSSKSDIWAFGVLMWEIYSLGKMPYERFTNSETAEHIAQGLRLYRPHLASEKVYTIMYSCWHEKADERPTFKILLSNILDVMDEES
In assay [8] the target is T1, Src. Briefly: biochemical.
The mark [9] stands for this setting: Homo sapiens, DOHH-2, 48 hrs, read-out: DoHH2 EC50.
Setting [10] is: Homo sapiens, DOHH-2, Table 4, DoHH2 cells, read-out: EC50 (Proliferation).

Data on 11 compounds can be found in patent publication US9714247B2, “Multiple kinase pathway inhibitors” (Mannkind Corporation, priority 2012, dated 2017).

Structures are written as SMILES. Like-named read-outs stand apart in the source and are kept apart here.

For orientation: IC50 means the midpoint of a concentration-inhibition curve. As to `O=c1c(-c2c(F)cccc2F)cc2cnc(Nc3ccc(F)cn3)cc2n1C1CCOC1` (single isomer, unassigned) [Compound 142, (R or S)-3-(2,6-difluorophenyl)-7-((5-fluoropyridin-2-yl)amino)-1-(tetrahydrofuran-3-yl)-1,6-naphthyridin-2(1H)-one], the EC50 in the assay on DoHH2 [1] (48 hrs, read-out: DoHH2 EC50) is under 1000 nM; in the assay on Ramos (48 hrs), 1000 to 10000 nM; in the assay on RBL-2H3 cells, over 5000 nM. The IC50 at Src [2] and against Lyn [3] (Lyn IC50) was under 100 nM throughout.
The inhibition is the change of the read-out against control, counted positive when it falls. On to `CCN(CC)CCOc1ccc(Nc2cc3c(cn2)cc(-c2ccccc2)c(=O)n3C2CCN(C)CC2)nc1` [Compound 16, 7-((5-(2-(diethylamino)ethoxy)pyridin-2-yl)amino)-1-(1-methylpiperidin-4-yl)-3-phenyl-1,6-naphthyridin-2(1H)-one], for which the EC50 with DoHH2 [1] (setting [9]) is under 1000 nM; in the assay on DoHH2 [1] (setting [10]), under 1000 nM; with Ramos (Homo sapiens, Ramos, 48 hrs), 1000 to 10000 nM. For the same compound, the “Percent Apoptosis at 2 uM” value in the assay with DoHH2 [4] is 32.57%. Also, the “Percent Apoptosis at 5 uM” value with DoHH2 [4] was determined as 58.99%. The results for the inhibition at 0.3 µM in assay [5] and in [6] were 46% and -1%, respectively. Also, the IC50 is under 100 nM at Src [2]; 100 to 1000 nM at Lyn [7]; 100 to 1000 nM on Lyn [3]; 100 to 1000 nM on BTK; 100 to 1000 nM at BTK (read-out: BTK IC50). In the assay on DoHH2 cells, the “Effect on Cell Cycle” value was “G1 Arrest”.
`CCN(CC)CCOc1ccc(Nc2cc3c(cn2)cc(-c2ccccc2)c(=O)n3C2CCC2)nc1` [Compound 25, 1-cyclobutyl-7-(5-(2-(diethylamino)ethoxy)pyridin-2-ylamino)-3-phenyl-1,6-naphthyridin-2(1H)-one]: the EC50 in the assay with DoHH2 [1] (setting [9]) is under 1000 nM; in the assay on DoHH2 [1] (setting [10]) it was under 1000 nM; in the assay on Ramos (Homo sapiens, Ramos, 48 h), 1000 to 10000 nM; in assay [5] (anti-phospho PLCγ2 (Tyr1217), four concentrations, read-out: Inhibition of phosphorylation of PLC-γ2 EC50), 280 nM. In addition, the “Percent Apoptosis at 2 uM” value in the assay with DoHH2 [4] is 26.94%. The “Percent Apoptosis at 5 uM” value with DoHH2 [4] worked out at 20.29%. Also, the inhibition at 0.3 µM is 61% in [5] and 26% in [6]. Besides, in the assay with DoHH2 cells, the “Effect on Cell Cycle” value is reported as “G1 Arrest”. Moreover, the IC50 on Src [8] and against Lyn [3] was 1000 to 5000 nM throughout.
Turning to `CCN(CC)CCOc1ccc(Nc2cc3c(cn2)cc(-c2ccccc2)c(=O)n3C2CC2)nc1` [Compound 27, 1-cyclopropyl-7-(5-(2-(diethylamino)ethoxy)pyridin-2-ylamino)-3-phenyl-1,6-naphthyridin-2(1H)-one], the EC50 is under 1000 nM in the assay on DoHH2 [1] (setting [9]); under 1000 nM in the assay with DoHH2 [1] (setting [10]); 1000 to 10000 nM in the assay with Ramos (Homo sapiens, Ramos, 48 hrs). For the same compound, the “Percent Apoptosis at 2 uM” value in the assay on DoHH2 [4] stood at 37.05%. The “Percent Apoptosis at 5 uM” value in the assay on DoHH2 [4] is 54.19%. Also, the “Effect on Cell Cycle” value with DoHH2 cells is “G1 Arrest”. In addition, the IC50 at Src [8] was 100 to 1000 nM; against Lyn [3] it was 100 to 1000 nM; on BTK (read-out: BTK IC50), under 100 nM.
Regarding `CC(C)n1c(=O)c(-c2c(F)cccc2F)cc2cnc(Nc3ccc(F)cn3)cc21` [Compound 78, 3-(2,6-difluorophenyl)-7-((5-fluoropyridin-2-yl)amino)-1-isopropyl-1,6-naphthyridin-2(1H)-one], the EC50 with DoHH2 [1] (setting [9]) was under 1000 nM; in the assay with Ramos (Homo sapiens, Ramos, 48 hrs), over 10000 nM; in the assay on RBL-2H3 cells, over 5000 nM. Besides, the inhibition at 0.3 µM in [5] was 55%; in assay [6] it was 8%. In addition, the IC50 against BTK lay in the range of 100 to 1000 nM.
For `CCn1c(=O)c(-c2c(F)cccc2F)cc2cnc(Nc3ccc(N(C)C4CCN(C)CC4)cn3)cc21` [Compound 95, 3-(2,6-difluorophenyl)-1-ethyl-7-((5-(methyl(1-methylpiperidin-4-yl)amino)pyridin-2-yl)amino)-1,6-naphthyridin-2(1H)-one], the EC50 was under 1000 nM in the assay with DoHH2 [1] (setting [9]); 1000 to 10000 nM in the assay with Ramos (Homo sapiens, Ramos, 48 h); 2220 nM in the assay on RBL-2H3 cells. The results for the inhibition at 0.3 µM in assay [5] and in assay [6] were 87% and 56%, respectively. In addition, the IC50 at Src [2], at Lyn [7] and at BTK (read-out: BTK IC50) was under 100 nM each time.
For the compound `CCN(CC)CCOc1ccc(Nc2cc3c(cn2)cc(-c2ccc(F)cc2C)c(=O)n3CC)nc1` [Compound 99, 7-((5-(2-(diethylamino)ethoxy)pyridin-2-yl)amino)-1-ethyl-3-(4-fluoro-2-methylphenyl)-1,6-naphthyridin-2(1H)-one], the EC50 was under 1000 nM in the assay on DoHH2 [1] (setting [9]); 1000 to 10000 nM in the assay on Ramos (Homo sapiens, Ramos, 48 hrs); 2990 nM with RBL-2H3 cells. Further, the inhibition at 0.3 µM in assay [5] was determined as 83%; in [6], 40%. Further, the IC50 at Src [2], at Lyn [7] and at BTK (read-out: BTK IC50) was under 100 nM in each case.
On to `CCN(CC)CCOc1ccc(Nc2cc3c(cn2)cc(-c2c(Cl)cccc2Cl)c(=O)n3CC)nc1` [Compound 101, 3-(2,6-dichlorophenyl)-7-((5-(2-(diethylamino)ethoxy)pyridin-2-yl)amino)-1-ethyl-1,6-naphthyridin-2(1H)-one], for which the EC50 was under 1000 nM in the assay on DoHH2 [1] (setting [9]); 1000 to 10000 nM in the assay on Ramos (Homo sapiens, Ramos, 48 hrs); 950 nM in the assay on RBL-2H3 cells. In addition, the inhibition at 0.3 µM was found to be 92% in assay [5] and 70% in [6]. Further, the IC50 at Src [2], on Lyn [7] and at BTK (read-out: BTK IC50) was under 100 nM in each case.
For `O=c1c(-c2c(F)cccc2F)cc2cnc(Nc3ccc(F)cn3)cc2n1CCN1CCOCC1` [Compound 133, 3-(2,6-difluorophenyl)-7-((5-fluoropyridin-2-yl)amino)-1-(2-morpholinoethyl)-1,6-naphthyridin-2(1H)-one], the EC50 is under 1000 nM with DoHH2 [1] (setting [9]); over 10000 nM with Ramos (Homo sapiens, Ramos, 48 hrs); 5490 nM with RBL-2H3 cells. For the same compound, the IC50 on Src [2], on Lyn [7] and on BTK (read-out: BTK IC50) was under 100 nM each time.
Regarding `CN1CC[C@H](n2c(=O)c(-c3c(F)cccc3F)cc3cnc(Nc4ccc(F)cn4)cc32)C1` [Compound 150, (S)-3-(2,6-difluorophenyl)-7-((5-fluoropyridin-2-yl)amino)-1-(1-methylpyrrolidin-3-yl)-1,6-naphthyridin-2(1H)-one], the EC50 in the assay on DoHH2 [1] (setting [9]) is 1000 to 10000 nM; with Ramos (Homo sapiens, Ramos, 48 h) it was over 10000 nM; with RBL-2H3 cells, over 5000 nM. The IC50 on Src [8] and against Lyn [3] (Lyn IC50) was 100 to 1000 nM throughout.
Consider `CN1CC[C@@H](n2c(=O)c(-c3c(F)cccc3F)cc3cnc(Nc4ccc(F)cn4)cc32)C1` [Compound 152, (R)-3-(2,6-difluorophenyl)-7-((5-fluoropyridin-2-yl)amino)-1-(1-methylpyrrolidin-3-yl)-1,6-naphthyridin-2(1H)-one], for which the EC50 is under 1000 nM in the assay on DoHH2 [1] (setting [9]); over 10000 nM with Ramos (Homo sapiens, Ramos, 48 h); over 5000 nM with RBL-2H3 cells. The 50% inhibitory concentration (IC50) at Src [8] and against Lyn [3] (Lyn IC50) was 100 to 1000 nM throughout.
